Assays:
[1] = system: voltage-sensitive Na^+ channels; experiment: Electrophysiological assay: patch-clamp recordings of voltage-sensitive Na^+ currents in acutely dissociated hippocampal neurons; format: cell-based, rat
Description: Electrophysiological Assay:
Cell preparation: Acute cultures of rat hippocampal neurons were prepared daily using a modification of procedures described previously (Kuo and Bean, Mol. Pharm. 46:716-725 (1994)). Briefly, hippocampi were isolated from 3-11 day old rat pup brains (Sprague-Dawley; Charles River) and were sectioned, by hand, into 0.5-1 mm thick transverse slices (Whittemore and Koerner, Eur. J. Pharm. 192:435-438 (1991)). Slices were incubated for at least 30 min at room temperature (20-24° C.) in an oxygenated medium (124 mM NaCl, 3.3 mM KCl, 2.4 mM MgSO4, 2.5 mM CaCl2, 1.2 mM KH2PO4, 26 mM NaHCO3, pH =7.4) continuously bubbled with 5% CO2/95% O2. […]
Patch-clamp recordings of voltage-sensitive Na^+ currents: Whole-cell voltage-clamp recordings were made using conventional patch-clamp technique (Hamill et al., Pfluegers Arch. 391:85-100 (1981)) with an Axopatch 200A amplifier (Axon Instruments, Foster City, Calif.). […] Currents were recorded at room temperature (22-25° C.), filtered at 5 kHz with 4-pole Bessel filter, digitized at 20-50-μs intervals, and stored using Digidata 1200 analog/digital interface with Pclamp6/Clampex software (Axon Instruments). […] The inhibitory potency of drugs was assessed by measuring reductions in the peak amplitude of Na^+ currents induced by increasing concentrations of compounds tested. […]

[2] = biological target: T1, human skeletal muscle Na^+ channel subunit (Homo sapiens, UniProt P35499); experiment: Na^+ current recordings in HEK-293 cells stably expressing human skeletal muscle Na^+ channel subunit; format: cell-based
T1 construct: expressed in transfected cells
T1 sequence (P35499 whole entry): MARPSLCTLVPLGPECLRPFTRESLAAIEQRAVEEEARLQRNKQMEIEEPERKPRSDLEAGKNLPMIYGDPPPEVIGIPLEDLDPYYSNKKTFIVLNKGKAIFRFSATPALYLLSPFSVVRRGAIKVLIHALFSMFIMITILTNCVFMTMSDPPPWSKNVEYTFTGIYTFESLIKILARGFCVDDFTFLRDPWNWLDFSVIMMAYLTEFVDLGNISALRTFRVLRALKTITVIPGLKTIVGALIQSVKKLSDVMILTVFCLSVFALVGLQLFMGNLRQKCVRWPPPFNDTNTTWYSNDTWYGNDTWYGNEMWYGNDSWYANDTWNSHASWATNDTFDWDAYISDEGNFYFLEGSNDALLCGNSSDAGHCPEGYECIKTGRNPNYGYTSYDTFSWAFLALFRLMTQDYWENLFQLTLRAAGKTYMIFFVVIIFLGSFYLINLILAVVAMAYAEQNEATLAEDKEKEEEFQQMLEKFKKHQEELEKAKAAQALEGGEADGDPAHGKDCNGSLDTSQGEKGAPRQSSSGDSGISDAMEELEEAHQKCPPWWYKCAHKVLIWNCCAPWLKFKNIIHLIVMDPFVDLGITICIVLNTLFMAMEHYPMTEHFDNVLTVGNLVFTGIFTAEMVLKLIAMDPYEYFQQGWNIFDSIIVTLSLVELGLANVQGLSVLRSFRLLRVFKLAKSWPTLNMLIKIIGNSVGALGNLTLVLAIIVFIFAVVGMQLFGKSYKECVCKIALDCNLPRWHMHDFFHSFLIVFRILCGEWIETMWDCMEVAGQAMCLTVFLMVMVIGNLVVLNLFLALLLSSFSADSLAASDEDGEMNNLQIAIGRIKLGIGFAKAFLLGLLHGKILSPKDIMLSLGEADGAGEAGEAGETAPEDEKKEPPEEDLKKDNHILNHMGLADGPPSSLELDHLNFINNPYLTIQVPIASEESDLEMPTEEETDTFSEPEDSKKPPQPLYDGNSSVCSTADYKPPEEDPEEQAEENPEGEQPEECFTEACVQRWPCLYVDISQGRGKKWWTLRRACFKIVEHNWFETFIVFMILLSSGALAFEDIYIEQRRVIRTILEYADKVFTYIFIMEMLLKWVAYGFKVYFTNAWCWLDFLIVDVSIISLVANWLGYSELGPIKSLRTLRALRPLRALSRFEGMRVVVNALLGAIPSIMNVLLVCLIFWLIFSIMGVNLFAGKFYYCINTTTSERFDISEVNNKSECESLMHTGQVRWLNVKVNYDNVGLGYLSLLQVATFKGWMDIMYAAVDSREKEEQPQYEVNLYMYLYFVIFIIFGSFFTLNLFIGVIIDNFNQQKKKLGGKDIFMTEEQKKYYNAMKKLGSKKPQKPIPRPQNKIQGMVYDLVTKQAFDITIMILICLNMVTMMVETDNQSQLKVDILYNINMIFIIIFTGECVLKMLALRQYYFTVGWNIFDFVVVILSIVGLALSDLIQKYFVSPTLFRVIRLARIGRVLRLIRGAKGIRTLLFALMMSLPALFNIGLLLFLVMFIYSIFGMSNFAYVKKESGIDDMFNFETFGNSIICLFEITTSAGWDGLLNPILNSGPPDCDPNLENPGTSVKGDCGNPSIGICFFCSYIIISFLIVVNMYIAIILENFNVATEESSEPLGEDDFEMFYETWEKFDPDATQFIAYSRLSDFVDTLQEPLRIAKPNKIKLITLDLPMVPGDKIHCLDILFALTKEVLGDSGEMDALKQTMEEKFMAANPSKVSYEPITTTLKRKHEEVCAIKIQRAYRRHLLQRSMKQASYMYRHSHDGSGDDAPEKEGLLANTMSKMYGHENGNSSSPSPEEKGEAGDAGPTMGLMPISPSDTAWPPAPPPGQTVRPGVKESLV
Description: The relative in vitro potency of these compounds were determined by their ability to inhibit human skeletal muscle Na^+ channel subunit stable expressed in HEK-293 cells. The techniques employed for Na^+ current recordings and analysis with the use of this cell line were similar to that described in example 36. These studies employ depolarizing prepulses of varying duration to allow drugs to bind, a brief (5 ms) repolarizing step to reprime unbound channels, followed by the test pulse (5 ms) to measure what proportion of channels are inhibited. The reduction in peak currents is then plotted as a function of prepulse duration and the time constant (τ) measured by monoexponential fit. A plot of 1/τ as a function of antagonist concentration then allows the macroscopic binding rates of the antagonists to be calculated. The anticonvulsant activities of additional compounds of the present invention were determined as described in example 38.

[3] = system: site 2 of the Na^+ channel; format: binding, rat

Structure (SMILES)	melting point	other results
NC(=O)NN=Cc1ccc(Oc2ccc([N+](=O)[O-])cc2)cc1 [Example 15, 4-(4-Nitrophenoxy)benzaldehyde semicarbazone]	221 to 222 °C	–
NC(=O)NN=Cc1ccc(Oc2ccc(F)cc2)cc1 [4-(4-fluorophenoxy)benzaldehyde semicarbazone]	–	inhibition of voltage-gated Na^+ currents ([1]; acutely dissociated rat hippocampal neurons): dose-dependent inhibition
NC(=O)NN=Cc1ccc(OC2CCOCC2)cc1 [Example 12, 4-(4-Tetrahydropyranoxy)benzaldehyde semicarbazone]	208 to 209 °C	–
NC(=O)NN=Cc1ccc(Oc2ccc(Cl)cc2F)cc1 [4-(2-Fluoro-4-chlorophenoxy)benzaldehyde semicarbazone]	218 to 220 °C	HsmNa^+ Ki [2]: 60 nM
CN(N=Cc1ccc(Oc2ccc(F)cc2)c(F)c1)C(N)=O [4-(4-Fluorophenoxy)-3-fluorobenzaldehyde 2′-methylsemicarbazone]	169 to 172 °C	–
CCCCCC(CC)Oc1ccc(C=NNC(N)=O)cc1 (stereo not shown) [Example 32b, 4-(3-Octoxy)benzaldehyde semicarbazone]	45 °C	–
NC(=O)NN=Cc1ccc(Oc2ccc3c(c2)CCC3)cc1 [4-(5-indanoxy)benzaldehyde semicarbazone, 4-(5-Indanoxy)benzaldehyde semicarbazone]	–	HsmNa^+ Ki [2]: 40 nM
NC(=O)NN=Cc1ccc(Oc2ccc(C(F)(F)F)cc2)cc1 [Example 34c, 4-(4-Trifluoromethylphenoxy)benzaldehyde semicarbazone]	119 to 122 °C	–
NC(=O)NN=Cc1ccc(Cc2ccccc2)cc1 [Example 33b, 4-Benzylbenzaldehyde semicarbazone]	118 to 120 °C	–
NC(=O)NN=Cc1ccc(OCC2CCCCC2)cc1 [Example 10, 4-(Cyclohexylmethoxy)benzaldehyde semicarbazone]	218 to 219 °C	–
NC1=N[C@H](O)[C@H]2[C@H]3O[C@]4(O)O[C@@H]([C@@H](O)[C@@]2(N1)[C@@H]4O)[C@]3(O)CO [Tetrodotoxin]	–	IC50 [3]: > 100000 nM
NC(=O)NN=Cc1ccc(Oc2ccc(F)cc2)cc1 [4-(4-Fluorophenoxy) benzaldehyde semicarbazone]	–	effect on the overall shape of the Na^+ channel current-voltage relationship ([1]; measured at peak current): little effect
